Ends that are not written are not given here. Peptide text beside a SMILES is read from it. * marks the point of attachment. Cbz = O=C(OCc1ccccc1)*; CH2F = FC*
Columns and labels:
[1] = system: hind-limbs of C57BL/6 mice, ischemia-reperfusion injury; experiment: hind-limb tourniquet ischemia (90 minutes) and reperfusion (3 hours), plasma creatine kinase; assay type: in vivo, mouse; details: pretreatment
Protocol: Skeletal muscle was made ischemic by applying a tourniquet to the hind-limbs of C57BL/6 mice for 90 minutes, then removing the tourniquet and allowing reperfusion for an additional 3 hours. Mice were treated with active peptide 1 (SEQ ID NO:17) or peptide 2 (SEQ ID NO:18) or peptide 3 (SEQ ID NO:19), or with the scrambled (control) peptide (SEQ ID NO:20). Peptide-1 (SEQ ID NO:17) is from the BH4 region of Bcl-2. Peptide-2 (SEQ ID NO:18) is from the first alpha helix of A1/Bfl-1. Peptide-3 (SEQ ID NO:19) is from the BH4 region of Bcl-XL. The amino acid sequences of peptide 1 (SEQ ID NO:17), peptide 2 (SEQ ID NO:18), peptide 3 (SEQ ID NO:19), and the scrambled (control) peptide (SEQ ID NO:20) are set forth in Table 1.
At the end of the 3 hours of reperfusion the mice were killed, and blood was taken for determination of plasma creatine kinase (CK) concentration. The CK concentration was used as an indicator of muscle injury. Elevated levels of CK indicate higher levels of muscle injury. […] The CK concentration for peptide 1 (SEQ ID NO:17) treated mice was 19,020+/−5481 IU/L (n=12) compared with control peptide (SEQ ID NO:20) where CK concentration was 60,530+/−5759 IU/L (n=12). The CK concentration for peptide 2 (SEQ ID NO:18) treated mice was 33,860+/−5997 IU/L (n=11) compared with control peptide (SEQ ID NO:20) where CK concentration was 69,430+/−11,170 IU/L (n=12). The CK concentration for peptide 3 (SEQ ID NO:19) treated mice was 49,500+/−3,901 IU/L (n=5) compared with control peptide (SEQ ID NO:20) where CK concentration was 80,880+/−11,430 IU/L (n=6).

[2] = system: skeletal muscle ischemia-reperfusion injury; details: Iwata et al., Blood 100:2077, 2002; cited from earlier work
[3] = system: C57BL/6 mice subjected to hind limb ischemia and reperfusion; experiment: hind limb ischemia (aortic cross-clamp, 90 minutes) and reperfusion (3 hours), plasma creatine kinase; assay type: in vivo; details: 1 microgram/mouse intraperitoneally the day before, 12 mice per group
Protocol: Mouse skeletal muscle was made ischemic by cross-clamping the aorta distal to the renal artery for 90 minutes, then the clamp was removed and hind limb reperfusion continued for 3 hours. At the end of reperfusion (3 hours after clamp removal) the mice were killed, and the concentration of plasma creatine kinase (CK) was measured and used as an indicator of injury (creatine kinase concentration increases as a result of skeletal muscle injury).
Blood from EμT-Bcl-2 mice and their littermate control mice was drawn into heparin and plasma was extracted by centrifugation. One ml of plasma from EμT-Bcl-2 mice, or one ml of plasma from littermate control mice, was injected into the peritoneum of C57BL/6 mice the day before the mice were subjected to 90 minutes of ischemia and 3 hours of reperfusion as described in Example 1 herein. Blood was drawn from the mice and plasma CK concentration was determined at the end of reperfusion.
C57BL/6 mice were injected intraperitoneally with 1 μg per mouse of recombinant human Bcl-2 (rBcl-2) (SEQ ID NO:15) or 1 μg per mouse of recombinant human ubiquitin (rUbiquitin), or the vehicle solution for rBcl-2 the day before the mice were subjected to hind limb ischemia (90 minutes) and reperfusion (180 minutes) as described in Example 1. […]

[4] = system: previously ischemic muscle of mice; experiment: tourniquet ischemia/reperfusion, skeletal muscle tissue viability by MTT; assay type: in vivo, mouse; details: measured the following day
Text: The ability of a Bcl protein to inhibit cell death in a mammal, and/or to inhibit inflammation in a mammal concurrent with or after the onset of a condition expected to lead to cell death or inflammation, can be assessed, for example, in a mammal subjected to ischemia-reperfusion injury. As used herein, “determining,” “measuring,” and “assessing,” and “assaying” are used interchangeably and include both quantitative and qualitative determinations. For example, one or more of the following markers and/or assays can be used to assess the ability of a Bcl protein to inhibit cell death and/or inflammation in a mammal subjected to ischemia-reperfusion injury: 1. […] The viability of tissue subjected to I/R was measured using 3-(4,5-dimethylthiazol-2-yl)-2,5-diphenyl tetrazolium (MTT) (Ferrera et al., J Mol Cell Cardiol 25:1091, 1993). […]
Anesthetized mice were subjected to 90 minutes of tourniquet ischemia using a hemorrhoid ligator followed by reperfusion and were treated at various times by a subcutaneous injection of 1 microgram of either rhA1/Bfl-1 or rhBim, a pro-apoptotic Bcl-2 family member that lacks a BH4 or BH4-like domain (O'Connor et al., EMBO J. 17:384, 1998). The following day, mice were killed, the previously ischemic muscle removed, and tissue viability measured using 3-(4,5-dimethylthiazol-2-yl)-2,5-diphenyl tetrazolium (MTT). […]

[5] = experiment peptide 1 (n=12) versus control peptide (n=12)
[6] = experiment peptide 2 (n=11) versus control peptide (n=12)
[7] = experiment peptide 3 (n=5) versus control peptide (n=6)

Molecule	CK concentration [1, 5]	CK concentration [1, 6]	CK concentration [1, 7]	further results
TWHMYGNQRDYIGDRSKIVYKLEYE [control peptide, scrambled (control) peptide, reference compound]	60,530+/−5759 IU/L	69,430+/−11,170 IU/L	80,880+/−11,430 IU/L	
CC(NC(=O)C(NC(=O)OCc1ccccc1)C(C)C)C(=O)NC(CC(=O)O)C(=O)CF (stereo not drawn) [z-VAD] (Cbz-Val-Ala-Asp-CH2F; configuration not given here)				DNA strand-breaks after extended ischemia and reperfusion of skeletal muscle [2]: prevents the strand-breaks; plasma CK concentration after extended ischemia and reperfusion of skeletal muscle [2]: reduces the plasma CK concentration
MSQSNRELVVDFLSYKLSQKGYSWSQF [peptide 3]			49,500+/−3,901 IU/L	
FGYIYRLAQDYLQCVLQIPZPGSGP (FGYIYRLAQDYLQCVLQIPXPGSGP; X not resolved here; also: Z at 20 undefined) [peptide 2, from the first alpha helix of A1/Bfl-1]		33,860+/−5997 IU/L		
TGYDNREIVMKYIHYKLSQRGYEWD [peptide 1]	19,020+/−5481 IU/L			
rhA1/Bfl-1: human A1 minus 25 amino acids at the carboxy terminal and addition of 6 histidine on the remaining protein (protein, listed as Homo sapiens) MTDCEFGYIYRLAQDYLQCVLQIPQPGSGPSKTSRVLQNVAFSVQKEVEKNLKSCLDNVNVVSVDTARTLFNQVMEKEFEDGIINWGRIVTIFAFEGILIKKLLRQQIAPDVDTYKEISYFVAEFIMNNTGEWIRQNGGWENGFVKKFEPKSHHHHHH				plasma creatine kinase concentration compared to mice injected with rUbiquitin [3]: significantly (p<0.05) lower; average plasma creatine kinase concentration ([3]; 90 min ischemia, 180 min reperfusion): 4,353+/−1284 IU/L; tissue viability normalized to tissue dry weight (MTT), compared to rhBim ([4]; 1 microgram subcutaneous 4 hours after the start of reperfusion, FIG. 11): significantly greater tissue viability; tissue viability normalized to tissue dry weight (MTT), compared to rhBim ([4]; 1 microgram subcutaneous at the time of reperfusion, FIG. 10): greater viability

From patent US20110263510A1, “Methods of Inhibiting Cell Death or Inflammation in a Mammal” (priority 2006, published 2011)
